Paper PMC4061029, “A Stable and Reproducible Human Blood-Brain Barrier Model Derived from Hematopoietic Stem Cells” (PLoS ONE, 2014)

Experiments:
[1] = tested on: CD34+-derived ECs co-cultured with pericytes; experiment: Abrogation of Wnt signaling: paracellular permeability of ECs co-cultured with pericytes; format: cell-based, human; conditions: co-culture with pericytes, 4 days, 0.1 or 1 µM, luminal side
Protocol: Prior to the experiments, HEPES-buffered Ringer’s solution (in some cases EBM-2 medium) was added to empty wells of a 12-well plate (Costar). Filter inserts, containing confluent monolayers of CD34^+-ECs, were subsequently placed in the 12-well plate, filled with compound solution containing the fluorescent integrity marker Lucifer Yellow (20 µM; Life Technologies), and then placed on an orbital shaker. After 1 h, filter inserts were withdrawn from the receiver compartment. Aliquots from the donor solution were taken at the beginning and at the end of the experiments and the fluorescence was quantified. At least three inserts with cells and three without cells were tested in each permeability measurement. Fluorescence detection was carried out on a Synergy H1 multiplates reader (Biotek) using the following excitation/emission wavelength (nm) settings: 432/538; 490/516; 542/570 for Lucifer yellow, Fluorescein Na and Cy3-Human Serum Albumin and Human IgG respectively.
For Wnt signaling experiments, mono- and co-culture systems were used. […]
Figure 6 Evaluation of Wnt signaling in the induction of BBB properties in ECs. […] After 4 days of coculture, the paracellular permeability and cell organization were evaluated. (D) Fluorescence microscopy images showing the expression of ZO-1 in untreated ECs or ECs treated with XAV 939 (1 µM) for 4 days. […]

[2] = tested on: CD34+-derived ECs co-cultured with pericytes; experiment: Cell viability of ECs under Wnt antagonist; format: cell-based, human; conditions: co-culture with pericytes, 4 days
[3] = tested on: iPSC-derived ECs with astrocytes; parameters: method as in PMID 24561821; conditions: cited from earlier work

Compound | paracellular permeability of the EC monolayer to lucifer yellow [1] | cell viability [2] | TEER of the BBB model [3]
Oc1nc(-c2ccc(C(F)(F)F)cc2)nc2c1CSCC2 [XAV-939] | increased | did not affect | 
CC1=C(/C=C/C(C)=C/C=C/C(C)=C/C(=O)O)C(C)(C)CCC1 [retinoic acid] |  |  | up to 5000 Ω×cm^2
